Results published in PMC4396556, “1,2,3,4,6-Penta-O-galloylglucose within Galla Chinensis Inhibits Human LDH-A and Attenuates Cell Proliferation in MDA-MB-231 Breast Cancer Cells” (Evidence-based Complementary and Alternative Medicine : eCAM, 2015).

Assays:
[1] = target: T1, human LDH-A (hLDH-A) (Homo sapiens, UniProt P00338); assay: recombinant enzyme assay, NADH oxidation at […] nm; velocity at varied NADH ±[…] PGG; format: biochemical
T1 construct: gene LDHA; recombinant full length human LDHA (amino acids 1–332) with N terminal His tag

[2] = target: T1, human LDH-A (hLDH-A); assay: recombinant enzyme assay, NADH oxidation at […] nm; format: biochemical

| SMILES | IC50 [1] [µM] | IC50 [2] [µM] |
| --- | --- | --- |
| O=C(OC[C@H]1O[C@@H](OC(=O)c2cc(O)c(O)c(O)c2)[C@H](OC(=O)c2cc(O)c(O)c(O)c2)[C@@H](OC(=O)c2cc(O)c(O)c(O)c2)[C@@H]1OC(=O)c1cc(O)c(O)c(O)c1)c1cc(O)c(O)c(O)c1 [PGG, penta-1,2,3,4,6-O-galloyl-β-D-glucose] | 0.0272 | – |
| O=C(O)C(=O)O [oxalic acid] | – | > 6000 |
